Test [1] concerns Escherichia coli. As to the kind of experiment: microbe, parasite or virus in culture.
Test [2] relates to Escherichia coli. As to the kind of experiment: microbe, parasite or virus in culture. The source holds these as a separate data set.
For test [3], the system named is HEK293. As to the kind of experiment: cells. The note with it: Homo sapiens.
Test [4] has as its system HEK293. Put plainly: cells. The conditions noted are these: Homo sapiens. The source holds these as a separate data set.
In test [5] the test system is Jurkat. As to the kind of experiment: SAR Analysis of small molecule inhibitors of T-cell specific antigen receptor-induced NF-kB activation in a Jurkat cell line using a luminescence assay - Set 2. [Related pubchem assays (depositor defined):AID435003, AID435012, AID465]. The class given is functional, cell-based. The note with it: Homo sapiens.
In test [6] the test system is HEK293. Put plainly: SAR Analysis of small molecule inhibitors of T-cell specific antigen receptor-induced NF-kB activation in a HEK-293T cell line using a luminescence assay - Set 2. [Related pubchem assays (depositor defined):AID435003, AID435012, AID489026]. Format: functional, cell-based. The note with it: Homo sapiens.
The test system of test [7] is HEK293. Put plainly: HEK293T cell viability loss, resazurin readout – resazurin fluorescence, cytotoxicity control for NF-kB activator project, SAR follow-up (AID 493251). Format: functional, cell-based. The note with it: Homo sapiens. Background: Resazurin is reduced to fluorescent resorufin, in cell work by metabolically active cells.
Test [8] deals with Jurkat. Put plainly: blockers of NF-kB activation in T cells – Jurkat, luciferase reporter, luminescence, B- and T-cell, dose response (AID 489004).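 Further: NF-kB luciferase reporter Jurkat cells stimulated with PMA plus ionomycin.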 The class given is functional, cell-based. The note with it: Homo sapiens. In general terms: A reporter such as luciferase makes a cellular process visible.
Test [9] in a line: blockers of HIV-1 envelope-mediated cell-cell fusion – cherry-pick, dose response (AID 652057). Format: functional, cell-based.
The nature of test [10]: off-target signal loss in HeLa-CEM21 co-culture – HeLa F-luc CTL cells, cherry-picked, counter-screen for HIV-1 Env fusion inhibitor project, dose response (AID 652040).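 Further: potency for signal decrease marking cytotoxic or nonspecific inhibition.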 The class given is functional, cell-based. Background: Counterscreens check selectivity or assay interference.
Test [11] is described as follows: blockers of HIV-1 ZM109 envelope-driven cell-cell fusion – HeLa effector, CEM target cells, luciferase, cherry-pick, dose response (AID 652058).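 Further: luciferase signal from HIV-1 Env mediated cell-cell fusion of effector and target cells.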 The class given is functional, cell-based.
Test [12] concerns BJ. As to the kind of experiment: cells. The note with it: Homo sapiens. The class given is functional, cell-based.
The target of test [13] is T1, Heat shock factor protein 1 (Mus musculus, UniProt P38532).
T1 sequence (P38532 whole entry): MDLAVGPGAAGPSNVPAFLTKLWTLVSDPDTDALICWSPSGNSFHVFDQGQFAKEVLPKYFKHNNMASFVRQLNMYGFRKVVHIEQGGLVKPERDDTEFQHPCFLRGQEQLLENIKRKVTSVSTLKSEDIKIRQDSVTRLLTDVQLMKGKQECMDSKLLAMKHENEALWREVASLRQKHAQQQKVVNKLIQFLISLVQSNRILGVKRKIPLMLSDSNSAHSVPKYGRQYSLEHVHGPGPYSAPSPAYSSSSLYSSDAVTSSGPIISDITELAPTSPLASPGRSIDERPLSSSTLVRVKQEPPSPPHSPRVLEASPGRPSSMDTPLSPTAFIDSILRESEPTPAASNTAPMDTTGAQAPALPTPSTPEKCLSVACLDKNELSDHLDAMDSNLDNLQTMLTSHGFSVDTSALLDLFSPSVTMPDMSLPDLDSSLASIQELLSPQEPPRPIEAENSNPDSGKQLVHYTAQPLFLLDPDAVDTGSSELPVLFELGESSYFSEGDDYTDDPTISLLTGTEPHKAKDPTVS
Put plainly: decrease of HSF1-responsive luciferase luminescence – cell-based, NIH3T3, dose retest, confirmation (AID 2382).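 Further: NIH3T3 fibroblasts with HSF1-driven luciferase reporter stressed by proteasome inhibitor MG132; luminescence from HSF1-driven luciferase expression after 8 hours of MG132 stress.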 The class given is functional.

The nature of test [14]: HIV-1 AD8 envelope cell-cell fusion blockers – cherry-pick, dose response (AID 652062).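 Further: luciferase signal from cell-cell fusion driven by HIV-1 clade B AD8 Env; potency is for inhibitors of fusion seen as a drop in luminescence.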 The class given is functional, cell-based.
Test [15] can be described thus: alpha-synuclein stem-loop translation blockers – luminescence, H4 neuroglioblastoma cells, dose confirmation, confirmation (AID 2454).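 Further: H4 neuroglioblastoma cells carrying an alpha-synuclein 5'UTR luciferase reporter; potency for inhibition of the luciferase signal.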 The class given is functional, cell-based.
A short description of test [16]: HEK-293T viability loss, compound-treated – cell-based, uHTS hits, cytotoxicity control for B/T-cell NF-kB inhibitor project, dose response (AID 489019).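 Further: IC50 reflects cytotoxicity as loss of cell viability.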 Format: functional.
The subject of test [17] is BJ. Put plainly: BJ-TERT fibroblast viability loss – cell-based, RAS-independent, luminescence, dose response (AID 1933). Format: functional. The note with it: Homo sapiens.
Test [18] is described as follows: viability loss in CEM21 cells – cell-based, CellTiter-Glo luminescence, cherry-picked, cytotoxicity control for viral fusion inhibitor project, dose response (AID 652042).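 Further: potency for signal decrease meaning cytotoxicity.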 The class given is functional.
A further test has as its system INS1. As to the kind of experiment: INS-1E survival protection against cytokine death – cell-based, luminescence, retest, dose response (AID 449756).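 Further: cell death triggered by IL-1 beta plus TNF-alpha plus IFN-gamma mixture; protective hits raise ATP signal compared with cytokine alone wells.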 Format: functional. The note with it: Rattus norvegicus.
Test [19] in a line: luciferase reporter signal reduction – luminescence, H4-C neuroglioblastoma cells, dose response (AID 2458).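 Further: H4 neuroglioblastoma cells stably carrying a luciferase reporter gene fusion.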 The class given is functional, cell-based.
In test [20] the target is Luciferin 4-monooxygenase (Photinus pyralis, UniProt P08659). Put plainly: inhibition of purified Photinus pyralis luciferase – biochemical, luminescence, dose response (AID 1891).
Chain of Luciferin 4-monooxygenase (P08659 whole entry): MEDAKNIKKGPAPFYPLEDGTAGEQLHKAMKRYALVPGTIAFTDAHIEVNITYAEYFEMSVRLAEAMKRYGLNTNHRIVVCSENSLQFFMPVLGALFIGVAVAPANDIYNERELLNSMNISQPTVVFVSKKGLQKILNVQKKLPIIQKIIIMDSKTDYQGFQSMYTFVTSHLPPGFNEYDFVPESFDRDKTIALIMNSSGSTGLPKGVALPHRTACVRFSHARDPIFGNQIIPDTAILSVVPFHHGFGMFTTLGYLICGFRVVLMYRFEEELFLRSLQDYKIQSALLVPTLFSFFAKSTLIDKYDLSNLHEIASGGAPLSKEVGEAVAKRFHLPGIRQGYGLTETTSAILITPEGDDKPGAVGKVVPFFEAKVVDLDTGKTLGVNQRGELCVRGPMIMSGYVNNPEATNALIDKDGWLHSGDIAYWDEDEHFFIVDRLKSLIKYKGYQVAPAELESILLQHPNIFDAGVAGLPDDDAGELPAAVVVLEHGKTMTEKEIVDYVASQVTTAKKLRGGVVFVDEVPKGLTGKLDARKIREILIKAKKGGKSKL
In test [21] the test system is BJ. As to the kind of experiment: growth inhibition of engineered Ras-driven BJ cells – cell-based, alamar blue fluorescence, cherrypicked samples, dose response (AID 2631).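 Further: confirmatory dose-response assay in RAS-dependent BJ fibroblasts engineered with TERT, LT and ST, with cytotoxicity read by fluorescence.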 The class given is functional. The note with it: Homo sapiens.
Test [22] relates to BJ. As to the kind of experiment: BJ-TERT-LT-ST fibroblast viability loss – cell-based, RAS-independent, luminescence, dose response (AID 1935).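 Further: BJ fibroblasts immortalized with TERT plus LT and ST oncogenes.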 The class given is functional. The note with it: Homo sapiens.
A short description of test [23]: Luminescence Cell-Based Dose Response HTS to Identify Inhibitors of 5'UTR Stem-Loop Driven Prion Protein mRNA Translation in H4 Neuroglioblastoma Cells. [Related pubchem assays: 1827 (Project Summary), 1813 (Primary HTS)]. The class given is functional.
Test [24] in a line: Luminescence Cell-Based Dose Confirmation HTS to Identify Inhibitors of Platelet Dense Granule Release. [Related pubchem assays: 1663 (Primary HTS), 1678 (Summary of Project)]. Format: functional.
A short description of test [25]: DRD fibroblast viability loss – cell-based, non-viral oncogenic, luminescence, dose response (AID 1934). The conditions noted are these: Homo sapiens. The class given is functional.
The nature of test [26]: luciferase reporter signal suppression in cells – H4 neuroglioma cells, luminescence, dose response (AID 1990). The class given is functional, cell-based.
A short description of the next test: cells. Format: functional, cell-based.
A short description of test [27]: alpha-synuclein stem-loop luciferase translation blockers – H4 neuroglioma cells, luminescence, confirmation (AID 1988). Format: functional, cell-based.

Activity calls are given as the source filed them.

By AC50 is commonly meant the concentration at which the activity in the assay is half-maximal. On to `Cc1cc(Cl)ccc1NC(=O)CN1CCCC1`, for which, in the test with Escherichia coli [1], the AC50 is 40000 nM (active).

Consider `O=C(CCc1ccccc1)N1CCN(Cc2ccc(F)cc2Cl)CC1`, for which, in the test on Escherichia coli [2], the AC50 was 66500 nM (active).

For orientation: EC50 means the midpoint of the concentration-response curve. Turning to `COc1ccc(CNCCc2c[nH]c3ccccc23)c(OC)c1OC`, the EC50 in the test with HEK293 [3] and in the test with HEK293 [4] was > 59600 nM (inactive) in each case.

Broadly, the IC50 is the point on the concentration scale where inhibition reaches its midpoint. `COc1ccc(C)cc1NC(=O)c1ccc([N+](=O)[O-])o1`: the IC50 is 6030 nM (active) in the test with Jurkat [5], 75600 nM (inactive) with HEK293 [6] and > 80000 nM (inactive) with HEK293 [7].

Take `Nc1nc(F)nc2c1ncn2[C@@H]1O[C@H](CO)[C@@H](O)[C@H]1O`: the IC50 was 2350 nM (active) in the test with Jurkat [8] and > 80000 nM (inactive) in [16]. The AC50 in test [9] is 341 nM (active); in test [10], 1400 nM (active); in test [11], < 260 nM (active); in test [14], 1920 nM (active); in test [18], 271 nM (active); in the test with INS1, 1350 nM (active). For the same molecule, the EC50 is 1350 nM (active) with BJ [12]; 5460 nM (active) in test [13]; 70 nM (active) in test [15]; 124 nM (active) with BJ [17]; 199 nM (active) in [19]; > 112000 nM (not active) in test [20]. For the same molecule, the EC50 in the test with BJ [21] is 348 nM (active); in the test with BJ [22] it was 460 nM (active); in test [23] it was < 100 nM (active); in test [24], < 88 nM (active); in [25], 674 nM (active); in test [26], 242 nM (active). The EC50 was 84 nM (active) in “cells” and < 100 nM (active) in test [27].

The values above are taken from ChEMBL document CHEMBL1201862, “PubChem BioAssay data set” (2004).
